According to US11753408B2, “Compounds and method for blocking transmission of malarial parasite” (The United States of America, as represented by the …, priority 2016, dated 2023):
pEC50: −log10 of the molar value. Read-outs that look alike come from different tables or passages of the source.

Tests used:
[1] = PAMPA permeability; format: in vitro ADME; details: PAMPA
[2] = Solubility at pH 7.4; format: physicochemical
[3] = test system: Stage III-V gametocytes (blood stage P. falciparum parasites); experiment: In vitro drug activity on gametocytes (AlamarBlue viability assay); format: cell-based, Plasmodium falciparum; details: read-out: Gametocyte EC50
Procedure, shortened: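 Viability was measured by AlamarBlue fluorescence (Ex 525/Em 598 nm) after 24 h dye incubation following 72 h compound exposure at 37° C, 5% CO2. Gametocytes, stage III–V from strains 3D7, HB3 and Dd2, were NAG/Percoll-enriched and plated at 20,000 cells/well.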

[4] = Microsomal stability (rat); format: in vitro ADME; details: rat microsomes
[5] = target: mTOR (Homo sapiens, UniProt P42345); experiment: mTOR activity (no method described); format: biochemical
[6] = test system: Asexual parasites of P. falciparum strain 3D7; experiment: In vitro drug activity on asexual parasites (SYBR Green assay); format: cell-based, Plasmodium falciparum
Procedure, shortened: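 SYBR Green I fluorescence (ex 490, em 520 nm) was read after freeze-thaw lysis and 30 min staining at room temperature. Before that, drug-treated cultures (0.5% parasitemia, 2% hematocrit, DMSO ≤0.5%) were incubated 72 h, in duplicate.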

[7] = P. falciparum stage III-V gametocytes, 72 h incubation, AlamarBlue
[8] = P. falciparum 3D7 asexual parasites, 72 h, SYBR Green

Row | SMILES | PAMPA Permeability (×10^6 cm/s) [1] | Sol @ pH 7.4 (ug/mL) [2] | Microsomal Stability (rat) T1/2 [4] | Sol @ pH 7.4 [2] | mTOR [5] | pEC50 [6] | pEC50 [6, 8] | pEC50 [3, 7] | pEC50 [3]
1 | CN(C)Cc1ccc(-c2ccc3ncc4ccc(=O)n(-c5ccc(N6CCOCC6)c(C#N)c5)c4c3c2)cc1 [Compound 5] | 725.27 ×10^6 cm/s | 7.03 ug/mL |  |  |  |  |  | 6.29 | 
2 | CS(=O)(=O)c1cccc(-n2c(=O)ccc3cnc4ccc(-c5ccc(N)nc5)cc4c32)c1 [Compound 80] | 50.85 ×10^6 cm/s | 49.68 ug/mL | 7.1 min |  |  |  |  | 6.67 | 
3 | C[S+]([O-])c1ccc(-n2c(=O)ccc3cnc4ccc(-c5ccc(N)nc5)cc4c32)cc1 (centres unmarked) [Compound 81] | 5.1 ×10^6 cm/s | 10 ug/mL |  |  |  |  |  | 7.47 | 
4 | CS(=O)(=O)c1ccc(-n2c(=O)ccc3cnc4ccc(-c5ccc(N)nc5)cc4c32)cc1N1CCOCC1 [Compound 83] | 58.31 ×10^6 cm/s | 5.62 ug/mL | >30.00 min |  |  |  |  | 7.13 | 
5 | CCN(CC)Cc1ccc(-c2ccc3ncc4ccc(=O)n(-c5ccc(C(=O)N6CCOCC6)cc5)c4c3c2)cc1 [Compound 175] |  |  | >30.00 min | 66.62 ug/mL | 11.78 µM | 6.14 |  |  | 5.79
6 | O=C(c1ccc(-n2c(=O)ccc3cnc4ccc(-c5ccc(CCN6CCOCC6)cc5)cc4c32)cc1)N1CCOCC1 [Compound 182] |  |  | 10.8 min | 1.1 ug/mL | 1.439 µM | 6.34 |  |  | 5.83
7 | O=C(c1ccc(-n2c(=O)ccc3cnc4ccc(Br)cc4c32)cc1)N1CCOCC1 [Compound 337] |  |  | >30.0 min | >68.0 ug/mL | 3.229 µM | 5.80 |  |  | 5.21
8 | CCN(CC)Cc1ccc(-c2ccc3ncc4ccc(=O)n(-c5ccc6c(c5)CNC6=O)c4c3c2)cc1 [Compound 363] | 8.76 ×10^6 cm/s | 57.74 ug/mL |  |  |  |  | 6.35 | 6.07 | 
9 | COC(=O)CN1Cc2cc(-n3c(=O)ccc4cnc5ccc(-c6ccc(CN(C)C)cc6)cc5c43)ccc2C1=O [Compound 366] | 47.8 ×10^6 cm/s | 14.8 ug/mL |  |  |  |  | 5.91 | 5.42 | 
10 | Nc1ccc(-c2ccc3ncc4ccc(=O)n(-c5ccc6c(c5)CNC6=O)c4c3c2)cn1 [Compound 388] | 2 ×10^6 cm/s | 11.8 ug/mL |  |  |  |  | 7.55 | 7.05 | 
11 | Nc1ccc(-c2ccc3ncc4ccc(=O)n(-c5ccc6c(c5)CC(=O)N6)c4c3c2)cn1 [Compound 389] | <9.7 ×10^6 cm/s | <1.0 ug/mL |  |  |  |  | 7.66 | 7.19 | 
12 | Nc1ccc(-c2ccc3ncc4ccc(=O)n(-c5ccc6c(c5)CCNC6=O)c4c3c2)cn1 [Compound 393] | <1.10 ×10^6 cm/s | 6.26 ug/mL |  |  |  |  | 8.03 | 7.51 | 
13 | N#Cc1cccc(-n2c(=O)[nH]c3cnc4ccc(-c5ccc(Cl)cc5)cc4c32)c1 [Compound 397] |  |  | >30.0 min | <1.0 ug/mL | Inactive | 6.57 |  |  | 6.63
14 | Cn1c(=O)n(-c2cccc(C#N)c2)c2c3cc(-c4ccc(Cl)cc4)ccc3ncc21 [Compound 398] |  |  | >30.0 min | <1.0 ug/mL | 2.471 µM | 6.98 |  |  | 6.71
15 | Cc1ccc(C#N)cc1-n1c(=O)[nH]c2cnc3ccc(-c4ccc(Cl)cc4)cc3c21 [Compound 399] |  |  | >30.0 min | <1.0 ug/mL | 100 µM | 6.66 |  |  | 6.28
16 | COc1cc(-c2ccc3ncc4c(c3c2)n(-c2cccc(C#N)c2)c(=O)n4C)ccc1Cl [Compound 403] |  |  | >30.0 min | 3.1 ug/mL | 100 µM | 6.90 |  |  | 6.58
17 | CC(=O)n1c(=O)n(-c2cccc(C#N)c2)c2c3cc(-c4ccc(Cl)cc4)ccc3ncc21 [Compound 405] |  |  | 2.4 min | <0.1 ug/mL | 100 µM | 6.53 |  |  | 6.18
18 | Cn1c(=O)n(-c2ccc(N3CCNCC3)c(C#N)c2)c2c3cc(-c4ccc(Cl)cc4)ccc3ncc21 [Compound 406] |  |  | 19.4 min | <1 ug/mL | 0.2165 µM | 8.07 |  |  | 7.88
19 | COc1cc(-c2ccc3ncc4c(c3c2)n(-c2cc(C#N)ccc2C)c(=O)n4C)ccc1Cl [Compound 407] |  |  | >30 min | <1 ug/mL | 50 µM | 7.28 |  |  | 6.98
20 | CCn1c(=O)n(-c2cccc(C#N)c2)c2c3cc(-c4ccc(Cl)cc4)ccc3ncc21 [Compound 440] |  |  | >30.0 min | <1.0 ug/mL | 100 µM | 6.10 |  |  | 5.66

Second part, led by results:

Row | PAMPA Permeability (×10^6 cm/s) [1] | Sol @ pH 7.4 (ug/mL) [2] | Microsomal Stability (rat) T1/2 [4] | Sol @ pH 7.4 [2] | mTOR [5] | pEC50 [6] | pEC50 [6, 8] | SMILES | pEC50 [3, 7] | pEC50 [3]
21 | <1.0 ×10^6 cm/s | <1.0 ug/mL | >30.0 min |  |  |  |  | CCS(=O)(=O)c1ccc(-n2c(=O)ccc3cnc4ccc(-c5ccc(Cl)cc5)cc4c32)cc1 [Compound 27] | 6.97 | 
22 | 788.14 ×10^6 cm/s | >71.00 ug/mL | 9.45 min |  |  |  |  | CN(C)Cc1ccc(-c2ccc3ncc4ccc(=O)n(-c5cccc(S(C)(=O)=O)c5)c4c3c2)cc1 [Compound 55] | 5.27 | 
23 | 716.98 ×10^6 cm/s | 0.01 ug/mL | >30.00 min |  |  |  |  | CS(=O)(=O)c1cccc(-n2c(=O)ccc3cnc4ccc(-c5ccc(Cl)cc5)cc4c32)c1 [Compound 56] | 5.81 | 
24 | 1527.98 ×10^6 cm/s | <0.10 ug/mL | 13.5 min |  |  |  |  | CS(=O)(=O)c1ccc(-n2c(=O)ccc3cnc4ccc(-c5ccc(Cl)cc5)cc4c32)cc1N1CCOCC1 [Compound 58] | 6.05 | 
25 | 1646.44 ×10^6 cm/s | 21.28 ug/mL | >30.00 min |  |  |  |  | CN(C)Cc1cccc(-c2ccc3ncc4ccc(=O)n(-c5ccc(S(C)(=O)=O)cc5)c4c3c2)c1 [Compound 60] | 5.71 | 
26 | 135 ×10^6 cm/s | <1 ug/mL | 1.4 min |  |  |  |  | CS(=O)(=O)c1ccc(-n2c(=O)ccc3cnc4ccc(-c5ccc(Cl)cc5)cc4c32)cc1CN1CCOCC1 [Compound 66] | 6.46 | 
27 | 1449.1 ×10^6 cm/s | <1 ug/mL | 1.7 min |  |  |  |  | CN(C)Cc1cc(-n2c(=O)ccc3cnc4ccc(-c5ccc(Cl)cc5)cc4c32)ccc1S(C)(=O)=O [Compound 67] | 5.87 | 
28 | 1209.2 ×10^6 cm/s | >72.00 ug/mL |  |  |  |  | 6.06 | CN(C)Cc1ccc(-c2ccc3ncc4ccc(=O)n(-c5ccc6c(c5)CCC(=O)N6C)c4c3c2)cc1 [Compound 358] | 5.66 | 
29 | <1.8 ×10^6 cm/s | 55.9 ug/mL |  |  |  |  | 6.32 | O=C(O)CN1Cc2cc(-n3c(=O)ccc4cnc5ccc(-c6ccc(Cl)cc6)cc5c43)ccc2C1=O [Compound 365] | 4.51 | 
